Measurements published in patent US9238019B2, “Antitussive and bronchodilator uses for enaminone ester” (UNIVERSITY OF KUWAIT, priority 2006, dated 2016).

What was measured:
guinea pigs [1] = experiment: Citric acid-induced cough in conscious guinea pigs (whole body plethysmography); assay type: in vivo, guinea pig; conditions: 100 mg/kg in DMSO intraperitoneally, 1 h before citric acid (0.6 M) aerosol; coughs counted over 15 min; vs vehicle group; FIG. 2
Procedure: (§1) In order to test the effectiveness of enaminone ester E121 as an antitussive, two groups of guinea pigs were established. Group 1 was a control group, which consisted of ten guinea pigs, who were administered vehicle only (100% dimethyl sulfoxide [DMSO]) intraperitoneally. Group 2 was a test group, which consisted of ten guinea pigs, who were administered enaminone E121 (100 mg/kg in DMSO) intraperitoneally (i.e., via intraperitoneal injection). Each group was separately placed in a transparent whole body plythesmography box (Buxco, Troy, N.Y.) for testing one hour after administration of the vehicle or the enaminone ester E121, respectively.
Each group was allowed a settling period in the whole body plethysmograph, after which baseline airway function was recorded for 2 minutes before administration of an aerosol. Animals in each group were then exposed to citric acid (0.6 M) aerosol for 10 minutes, during which cough and airway function were recorded, and for an additional 5 minutes thereafter (a total of 15 minutes). The aerosols were generated using a DeVilbiss aerogen ultrasonic nebulizer (DeVilbiss, Somerset, Pa.), the nebulized spray having an aerodynamic mass median diameter droplet size range of […] (manufacturer's indication). […]
Coughs were recorded from conscious, unrestrained guinea pigs manually by a trained observer as confirmation. […]

guinea pigs [2] = experiment: Airway obstruction (enhanced pause, Penh) during citric acid aerosol exposure; assay type: in vivo, guinea pig; conditions: 100 mg/kg in DMSO intraperitoneally; citric acid (0.6 M) aerosol; vs vehicle group; FIG. 3
Procedure: as §1
Each group was allowed a settling period in the whole body plethysmograph, after which baseline airway function was recorded for 2 minutes before administration of an aerosol. Animals in each group were then exposed to citric acid (0.6 M) aerosol for 10 minutes, during which cough and airway function were recorded, and for an additional 5 minutes thereafter (a total of 15 minutes). […]
The pressure differences between the main chamber of the whole body plethysmograph containing the animals and a reference chamber (box pressure signal) were measured. […]

[3] = tested on: guinea pig bronchial preparations pre-contracted with carbachol; experiment: Agonist-induced relaxation of guinea pig bronchial ring preparations pre-contracted with carbachol; conditions: concentration response curves repeated after one hour; compared with salbutamol
Procedure: Two groups of guinea pigs, each group containing twelve guinea pigs, were decapitated under light ether anesthesia and the tracheas were dissected out with the lungs en bloc. The origin of bifurcation of the trachea into bronchioles was identified after removal of the excess connective tissue. The isolated bronchioles were cut into ring segments of 4 mm in length. The preparations were mounted in organ baths containing 25 mL Krebs-Henseleit (KH) solution at pH 7.4, maintained at 37° C. and aerated with a 95% O2 and 5% CO2 mixture. The preparations were left to stabilize for 45 minutes, changing the KH solution at 15-minute intervals. A pre-tension of 0.75 gm was applied, and a stabilization period of 45 minutes was allowed until a stable baseline tone was obtained. Isolated segments of the bronchioles were pre-contracted with carbachol (3 μM). Responses of the carbachol pre-contracted bronchial ring segments to the different agonists were determined by measurement of changes in the isometric tension, using computerized automatic organ bath analyzing instruments.
Bronchodilator responses to salbutamol (10^−9-3×10^−4 M) and enaminone ester E121 (10^−9-10^−4 M) were investigated on different preparations of the bronchioles. […] The bronchodilator responses were expressed as a percentage reduction of the carbachol induced pre-contraction. […]

Solid-state stability = assay type: physicochemical; conditions: room temperature

For CCOC(=O)C1C(=O)C=C(Nc2ccc(Cl)cc2)CC1C (stereo not shown) [enaminone E121, ethyl 4-[(4-chlorophenyl)amino]-6-methyl-2-oxocyclohex-3-en-1-oate], the number of coughs (guinea pigs [1]) was “substantially lower incidence of coughs”, the “enhanced pause (Penh), bronchoconstriction or airway obstruction” value (guinea pigs [2]) was “less bronchoconstriction or airway obstruction” and the “tachyphylaxis of airway smooth muscle relaxant effect” value [3] was “lower levels of tachyphalaxis than salbutamol”. For the same molecule, the “stability of the solid” value (Solid-state stability) was “stable solid at room temperature”.
